# System: immune response to oxazolone
# Assay: Rescue of the cyclophosphamide-inhibited delayed contact response to oxazolone in mice (Example A, b)
# Type: in vivo
# Conditions: Mus musculus, ip, 48 h; cyclophosphamide alone, 200mg/kg intraperitoneal, two days after sensitisation with oxazolone; C57B1 mice
compound,measurement,value
O=P1(N(CCCl)CCCl)NCCCO1 (stereo not shown) [cyclophosphamide],inhibition at 200 mg/kg,64%

# — patent EP0164204A1, “Novel pharmaceutically useful pyrimidines” (FISONS plc, priority 1984, dated 1985)
